# Columns and labels:
# Assay in all cases: relative viability (nuclei count vs DMSO), 5 days (fraction); higher = more cells survive
# [1] = compound: CNC(=O)c1cc(Oc2ccc(NC(=O)Nc3ccc(Cl)c(C(F)(F)F)c3)cc2)ccn1 [Sorafenib] + CC(=O)c1c(C)c2cnc(Nc3ccc(N4CCNCC4)cn3)nc2n(C2CCCC2)c1=O [Palbociclib] (partner 0.5 µM)
# How it was run: (§1)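 Lung cancer cell lines were pin-tool dosed in 1536-well plates on the day after seeding, with either a lone drug or a fixed anchor-drug dose plus five library-drug doses (not always all listed) in √10 steps. Nuclei were counted on 4× images after 5 days. Relative viability is the ratio of treated-well to vehicle-well nuclei counts, with each value a median of duplicate plates.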
# [2] = compound: CNC(=O)c1cc(Oc2ccc(NC(=O)Nc3ccc(Cl)c(C(F)(F)F)c3)cc2)ccn1 [Sorafenib] + C[C@]1(O)C[C@@H](c2nc(-c3ccc4ccc(-c5ccccc5)nc4c3)c3c(N)nccn32)C1 [Linsitinib] (partner 1 µM)
# How it was run: as §1
# [3] = compound: CNC(=O)c1cc(Oc2ccc(NC(=O)Nc3ccc(Cl)c(C(F)(F)F)c3)cc2)ccn1 [Sorafenib] + Cc1cc(Nc2cc(N3CCN(C)CC3)nc(Sc3ccc(NC(=O)C4CC4)cc3)n2)n[nH]1 [Tozasertib] (partner 0.1 µM)
# How it was run: as §1
# [4] = compound: CNC(=O)c1cc(Oc2ccc(NC(=O)Nc3ccc(Cl)c(C(F)(F)F)c3)cc2)ccn1 [Sorafenib] + Cc1nc(Nc2ncc(C(=O)Nc3c(C)cccc3Cl)s2)cc(N2CCN(CCO)CC2)n1 [Dasatinib] (partner 0.075 µM)
# How it was run: as §1
# [5] = compound: CNC(=O)c1cc(Oc2ccc(NC(=O)Nc3ccc(Cl)c(C(F)(F)F)c3)cc2)ccn1 [Sorafenib] + Nc1ncn([C@H]2C[C@H](O)[C@@H](CO)O2)c(=O)n1 [Decitabine] (partner 2 µM)
# How it was run: as §1
Cell Line,relative viability ([1]; first compound 0.08 µM),relative viability ([1]; first compound 0.253 µM),relative viability ([1]; first compound 2.53 µM),relative viability ([1]; first compound 8 µM),relative viability ([2]; first compound 0.08 µM),relative viability ([2]; first compound 0.253 µM),relative viability ([2]; first compound 2.53 µM),relative viability ([2]; first compound 8 µM),relative viability ([3]; first compound 0.08 µM),relative viability ([3]; first compound 0.253 µM),relative viability ([3]; first compound 2.53 µM),relative viability ([3]; first compound 8 µM),relative viability ([4]; first compound 0.08 µM),relative viability ([4]; first compound 0.253 µM),relative viability ([4]; first compound 2.53 µM),relative viability ([4]; first compound 8 µM),relative viability ([5]; first compound 0.08 µM),relative viability ([5]; first compound 0.253 µM),relative viability ([5]; first compound 2.53 µM),relative viability ([5]; first compound 8 µM)
NCI-H1734,0.376,0.329,0.37,0.275,0.967,0.836,0.841,0.742,0.266,0.224,0.249,0.212,0.536,0.402,0.402,0.357,0.479,0.445,0.484,0.431
NCI-H1755,0.482,–,0.461,–,1.03,1.02,0.971,0.743,0.498,0.532,0.471,0.456,0.419,0.436,0.409,0.35,0.72,0.715,0.753,0.634
NCI-H1793,0.354,0.376,0.465,0.411,1.18,0.896,1.01,1.21,0.467,0.374,0.242,0.182,0.411,0.356,0.379,0.406,0.531,0.535,0.464,–
NCI-H1915,0.54,0.574,0.581,0.413,1.06,0.952,0.949,1.15,0.454,0.409,0.397,0.374,0.326,0.327,0.402,0.273,0.26,0.254,0.268,0.247
NCI-H1944,0.339,0.346,0.371,0.306,1.21,1.24,1.3,1.09,0.281,0.292,0.266,0.206,0.213,0.229,0.245,0.206,–,0.47,0.482,0.38
NCI-H1975,0.712,0.49,0.656,0.311,1.01,1.02,1.08,0.491,0.873,0.704,0.643,0.162,0.423,0.305,0.374,0.314,0.431,0.383,0.365,0.353
NCI-H1993,0.662,0.656,0.751,0.565,0.774,0.675,–,0.819,0.601,0.565,0.584,0.608,0.547,0.302,0.554,0.384,–,0.478,0.665,0.489
NCI-H2009,0.275,0.115,0.21,0.198,1.15,1.11,1.05,1.11,0.775,0.666,0.723,0.498,0.346,0.23,0.325,0.16,0.375,0.394,0.315,0.227
NCI-H2023,0.49,0.444,0.435,0.106,0.733,0.735,0.669,0.497,0.282,0.278,0.229,0.142,0.681,0.485,0.601,0.275,0.235,0.232,0.22,0.189
NCI-H2085,0.442,0.491,0.51,0.497,0.962,0.924,1.07,0.728,0.849,0.833,0.611,–,0.311,0.271,0.26,0.237,0.608,0.566,0.573,0.49
NCI-H2087,0.245,0.209,0.15,0.159,0.756,0.853,0.956,0.275,0.26,0.241,0.212,0.152,1.03,0.744,0.684,0.154,0.304,0.231,0.172,0.107
NCI-H2126,0.354,0.375,0.411,0.399,0.754,0.706,0.745,–,0.93,0.842,0.866,–,0.735,0.533,0.652,0.501,0.631,0.524,0.562,0.643
NCI-H2347,0.432,0.464,0.434,0.43,–,0.921,0.973,0.999,0.646,0.599,0.509,0.426,0.74,0.351,0.351,0.308,0.592,0.628,0.675,0.594
NCI-H2405,0.553,0.517,0.561,0.477,1.1,0.907,0.715,0.502,0.819,0.743,0.751,0.613,0.217,0.183,0.2,0.214,0.754,0.726,0.737,0.577
NCI-H3122,0.204,0.2,0.177,0.18,1.06,1.02,1.01,0.828,0.44,0.363,0.363,0.301,0.92,0.422,0.715,0.311,0.384,0.467,0.375,0.189
PC-3 [JPC-3],0.522,0.552,0.576,0.606,0.951,0.981,1.01,0.949,0.879,0.846,0.881,0.823,1.03,0.936,–,–,0.835,0.763,0.837,0.826
